According to PMC5590800 (Biomolecules & Therapeutics, 2017):
Where “and” joins values, the source holds several entries; their conditions need not be identical. Equal entries are not always repeated. Where two headings read alike, the source gives them in different places.

Experiments:
[1] = In vitro daunomycin cytotoxicity assay; type: cell-based; conditions: human
[2] = type: in vivo, Sprague-Dawley rats
[3] = oral administration; ref Sezgin-Bayindir et al., 2013; Cai et al., 2014; cited from earlier work
[4] = male, Sprague-Dawley, rat, plasma, iv, 2 mg/kg
[5] = male, Sprague-Dawley, rat, plasma, po, 25 mg/kg

Compound	IC50 at 2 h [1] [µM]	Clt of PTX ([2]; PTX IV 2 mg/kg, rats, 2 mg/kg)	Relative BA of PTX ([2]; PTX PO 25 mg/kg alone (oral control), rats) [%]	Absolute BA of PTX ([2]; PTX PO 25 mg/kg alone vs IV 2 mg/kg, rats) [%]	Clt/F of PTX ([2]; PTX PO 25 mg/kg alone, rats) [L/h]	AUC(0-inf) [2, 4] [ng·h/mL]	AUC(0-t) [2, 4] [ng·h/mL]	C0 [2, 4] [ng/mL]	Vd [2, 4] [L]	half-life [2, 4] [h]	k el [2, 4] [s⁻¹]	AUC(0-inf) [2, 5] [ng·h/mL]	AUC(0-t) [2, 5] [ng·h/mL]	Cmax [2, 5] [ng/mL]	Tmax [2, 5] [h]	Vd/F [2, 5] [L]	half-life [2, 5] [h]	k el [2, 5] [s⁻¹]	Oral bioavailability of PTX [3] [%]
COc1cccc2c1C(=O)c1c(O)c3c(c(O)c1C2=O)C[C@@](O)(C(C)=O)C[C@@H]3O[C@H]1C[C@H](N)[C@H](O)[C@H](C)O1 [DNM, Daunomycin]	10.4 ± 0.53	–	–	–	–	–	–	–	–	–	–	–	–	–	–	–	–	–	–
CC(=O)O[C@H]1C(=O)[C@@]2(C)[C@H]([C@H](OC(=O)c3ccccc3)[C@]3(O)C[C@H](OC(=O)[C@H](O)[C@@H](NC(=O)c4ccccc4)c4ccccc4)C(C)=C1C3(C)C)[C@]1(OC(C)=O)CO[C@@H]1C[C@@H]2O [PTX, Paclitaxel]	–	0.328 L/h and 0.328 ± 0.097 L/h	100.0	2.0	12.7 ± 2.8	1790 ± 522	1660 ± 499	3330 ± 1160	2.06 ± 0.36	4.55 ± 1.02	4.47e-05	564 ± 116	409 ± 47.2	60.6 ± 10.3	4.2 ± 1.1	73.6 ± 14.9	4.26 ± 1.62	5.06e-05	< 5
